Data: ChEMBL document CHEMBL4507291 (2021)

Columns and labels:
[1] = test system: Epidermal growth factor receptor (Homo sapiens), P00533 [UNDEFINED MUTATION]
[2] = target: Serine/threonine-protein kinase ICK (Homo sapiens) (UniProt Q9UPZ9)
[3] = test system: Epidermal growth factor receptor (Homo sapiens), P00533 [L858R,T790M]
[4] = target: T1, Aurora kinase A (Homo sapiens) (UniProt O14965)
T1 sequence (whole entry): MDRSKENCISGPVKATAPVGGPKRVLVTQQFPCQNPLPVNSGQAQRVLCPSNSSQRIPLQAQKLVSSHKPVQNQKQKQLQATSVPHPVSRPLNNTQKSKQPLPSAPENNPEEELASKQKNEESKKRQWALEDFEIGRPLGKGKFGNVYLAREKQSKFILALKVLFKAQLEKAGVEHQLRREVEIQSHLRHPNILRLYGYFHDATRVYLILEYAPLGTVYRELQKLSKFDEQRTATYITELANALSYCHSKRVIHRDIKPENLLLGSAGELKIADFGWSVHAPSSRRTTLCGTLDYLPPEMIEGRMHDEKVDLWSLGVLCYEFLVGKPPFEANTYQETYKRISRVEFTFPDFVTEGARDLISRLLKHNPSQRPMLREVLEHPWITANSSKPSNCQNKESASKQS

[5] = target: T2, Ephrin type-B receptor 4 (Homo sapiens) (UniProt P54760)
T2 sequence (whole entry): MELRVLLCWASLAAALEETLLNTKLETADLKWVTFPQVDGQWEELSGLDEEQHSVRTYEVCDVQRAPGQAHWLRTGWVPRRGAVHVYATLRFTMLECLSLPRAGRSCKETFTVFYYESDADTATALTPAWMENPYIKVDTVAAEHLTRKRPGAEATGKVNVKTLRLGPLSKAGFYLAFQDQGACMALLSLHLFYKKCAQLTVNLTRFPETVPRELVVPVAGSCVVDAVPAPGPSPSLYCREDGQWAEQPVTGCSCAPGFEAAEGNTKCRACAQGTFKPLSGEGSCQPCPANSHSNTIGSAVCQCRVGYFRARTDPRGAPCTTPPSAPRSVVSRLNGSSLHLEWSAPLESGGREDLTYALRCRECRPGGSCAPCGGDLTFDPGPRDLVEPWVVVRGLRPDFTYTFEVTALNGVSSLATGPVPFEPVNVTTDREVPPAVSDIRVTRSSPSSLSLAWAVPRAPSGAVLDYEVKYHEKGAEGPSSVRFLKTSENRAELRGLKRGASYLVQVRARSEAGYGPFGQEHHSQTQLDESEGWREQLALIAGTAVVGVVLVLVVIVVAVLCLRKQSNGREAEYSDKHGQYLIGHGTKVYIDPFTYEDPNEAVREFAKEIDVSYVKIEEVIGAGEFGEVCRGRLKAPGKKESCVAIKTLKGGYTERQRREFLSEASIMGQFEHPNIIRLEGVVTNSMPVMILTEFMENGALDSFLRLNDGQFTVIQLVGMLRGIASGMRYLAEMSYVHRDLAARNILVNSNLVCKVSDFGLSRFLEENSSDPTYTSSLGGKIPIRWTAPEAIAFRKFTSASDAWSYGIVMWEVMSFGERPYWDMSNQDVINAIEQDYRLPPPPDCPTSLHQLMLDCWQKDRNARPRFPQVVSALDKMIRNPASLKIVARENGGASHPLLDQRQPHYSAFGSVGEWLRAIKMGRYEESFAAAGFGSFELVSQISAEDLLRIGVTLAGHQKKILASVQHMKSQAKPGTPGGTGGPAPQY

[6] = target: Mitogen-activated protein kinase kinase kinase 19 (Homo sapiens) (UniProt Q56UN5)
[7] = target: Cyclin-dependent kinase 4 (Homo sapiens) (UniProt P11802)
[8] = target: Serine/threonine-protein kinase/endoribonuclease IRE1 (Homo sapiens) (UniProt O75460)
[9] = target: Mitogen-activated protein kinase 11 (Homo sapiens) (UniProt Q15759)
[10] = target: Serine/threonine-protein kinase OSR1 (Homo sapiens) (UniProt O95747)
[11] = target: Serine/threonine-protein kinase N1 (Homo sapiens) (UniProt Q16512)
[12] = target: Kappa-type opioid receptor (Homo sapiens) (UniProt P41145); settings: Compound concentration 10.0 uM
[13] = target: Serine/threonine-protein kinase VRK2 (Homo sapiens) (UniProt Q86Y07)
[14] = target: Mitogen-activated protein kinase kinase kinase kinase 3 (Homo sapiens) (UniProt Q8IVH8)
[15] = test system: Phosphatidylinositol 4,5-bisphosphate 3-kinase catalytic subunit alpha isoform (Homo sapiens), P42336 [E542K]
[16] = target: Ribosomal protein S6 kinase alpha-1 (Homo sapiens) (UniProt Q15418)
[17] = target: GABA-A receptor; anion channel (Rattus norvegicus) (UniProt O09028+P15431+P18506+P18508+P19969+P20236+P23574+P23576+P28471+P28473+P30191+P62813+P63079+P63138+Q91ZM7+Q9ES14); settings: Compound concentration 10.0 uM
[18] = target: Dual specificity protein kinase CLK4 (Homo sapiens) (UniProt Q9HAZ1)
[19] = target: Maternal embryonic leucine zipper kinase (Homo sapiens) (UniProt Q14680)
[20] = target: T3, Aurora kinase C (Homo sapiens) (UniProt Q9UQB9)
T3 sequence (whole entry): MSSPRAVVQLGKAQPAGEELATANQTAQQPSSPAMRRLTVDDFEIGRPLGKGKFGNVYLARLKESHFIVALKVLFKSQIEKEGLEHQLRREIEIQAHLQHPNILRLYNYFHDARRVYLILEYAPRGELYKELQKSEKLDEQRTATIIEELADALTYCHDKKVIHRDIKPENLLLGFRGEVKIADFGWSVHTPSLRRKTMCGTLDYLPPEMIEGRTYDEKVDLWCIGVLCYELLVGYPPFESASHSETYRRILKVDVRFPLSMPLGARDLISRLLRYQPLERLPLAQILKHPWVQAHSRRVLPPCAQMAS

[21] = target: Ribosomal protein S6 kinase alpha-3 (Homo sapiens) (UniProt P51812)
[22] = Compound concentration 1000.0 nM
[23] = Compound concentration 100.0 nM

Chain of Dual specificity protein kinase CLK4 (Homo sapiens) (Q9HAZ1 whole entry, looked up): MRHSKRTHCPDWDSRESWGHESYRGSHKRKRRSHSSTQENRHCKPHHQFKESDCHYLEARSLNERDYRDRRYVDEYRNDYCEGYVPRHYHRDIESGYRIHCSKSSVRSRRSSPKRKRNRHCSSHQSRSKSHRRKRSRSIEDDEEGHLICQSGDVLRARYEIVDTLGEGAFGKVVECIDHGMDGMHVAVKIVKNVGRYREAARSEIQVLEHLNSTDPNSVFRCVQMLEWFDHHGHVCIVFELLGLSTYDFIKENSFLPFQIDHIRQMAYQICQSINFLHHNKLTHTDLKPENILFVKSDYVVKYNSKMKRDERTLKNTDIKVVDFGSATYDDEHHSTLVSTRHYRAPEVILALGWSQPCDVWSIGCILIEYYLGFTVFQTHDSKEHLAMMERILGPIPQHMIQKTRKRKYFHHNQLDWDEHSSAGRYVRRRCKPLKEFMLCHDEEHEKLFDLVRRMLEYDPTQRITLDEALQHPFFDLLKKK
Chain of Serine/threonine-protein kinase OSR1 (Homo sapiens) (O95747 2-527 limits assumed): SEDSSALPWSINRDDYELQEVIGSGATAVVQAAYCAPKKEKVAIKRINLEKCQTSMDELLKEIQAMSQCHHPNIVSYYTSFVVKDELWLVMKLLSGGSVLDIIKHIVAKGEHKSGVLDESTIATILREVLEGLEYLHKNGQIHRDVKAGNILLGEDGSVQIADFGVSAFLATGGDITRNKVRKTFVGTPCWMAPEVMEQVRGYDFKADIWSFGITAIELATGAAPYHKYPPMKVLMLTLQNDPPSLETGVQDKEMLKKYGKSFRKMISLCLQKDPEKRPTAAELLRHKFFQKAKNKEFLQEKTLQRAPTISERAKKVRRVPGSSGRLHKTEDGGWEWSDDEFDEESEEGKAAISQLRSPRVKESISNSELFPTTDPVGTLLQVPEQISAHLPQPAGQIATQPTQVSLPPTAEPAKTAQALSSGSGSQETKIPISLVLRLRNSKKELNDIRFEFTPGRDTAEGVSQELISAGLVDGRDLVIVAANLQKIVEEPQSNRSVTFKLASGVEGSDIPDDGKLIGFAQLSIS
Chain of Cyclin-dependent kinase 4 (Homo sapiens) (P11802 whole entry): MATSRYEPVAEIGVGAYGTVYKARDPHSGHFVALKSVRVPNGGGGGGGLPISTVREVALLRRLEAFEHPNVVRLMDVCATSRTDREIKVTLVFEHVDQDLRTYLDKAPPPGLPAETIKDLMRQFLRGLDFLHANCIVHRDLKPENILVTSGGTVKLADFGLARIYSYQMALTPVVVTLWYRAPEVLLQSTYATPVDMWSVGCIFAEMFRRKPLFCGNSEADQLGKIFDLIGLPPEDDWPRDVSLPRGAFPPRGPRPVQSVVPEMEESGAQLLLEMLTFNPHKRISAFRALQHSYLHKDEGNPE
Chain of Maternal embryonic leucine zipper kinase (Homo sapiens) (Q14680 whole entry, looked up): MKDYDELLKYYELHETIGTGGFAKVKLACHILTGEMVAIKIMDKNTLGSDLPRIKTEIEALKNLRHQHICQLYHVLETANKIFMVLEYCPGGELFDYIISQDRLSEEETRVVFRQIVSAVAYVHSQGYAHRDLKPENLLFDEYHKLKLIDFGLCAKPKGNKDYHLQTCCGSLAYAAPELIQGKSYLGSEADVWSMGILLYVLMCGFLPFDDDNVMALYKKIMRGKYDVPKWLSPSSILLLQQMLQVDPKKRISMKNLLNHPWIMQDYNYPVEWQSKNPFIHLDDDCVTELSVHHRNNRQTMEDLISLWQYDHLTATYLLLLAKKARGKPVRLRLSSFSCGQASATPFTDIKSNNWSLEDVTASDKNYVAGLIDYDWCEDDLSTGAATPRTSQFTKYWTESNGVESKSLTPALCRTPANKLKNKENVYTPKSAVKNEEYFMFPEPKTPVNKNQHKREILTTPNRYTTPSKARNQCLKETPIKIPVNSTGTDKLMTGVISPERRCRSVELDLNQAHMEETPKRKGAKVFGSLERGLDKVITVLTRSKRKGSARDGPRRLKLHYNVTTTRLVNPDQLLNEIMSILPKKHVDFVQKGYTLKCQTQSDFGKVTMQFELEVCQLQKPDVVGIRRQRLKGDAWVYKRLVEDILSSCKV
Chain of Mitogen-activated protein kinase kinase kinase 19 (Homo sapiens) (Q56UN5 whole entry): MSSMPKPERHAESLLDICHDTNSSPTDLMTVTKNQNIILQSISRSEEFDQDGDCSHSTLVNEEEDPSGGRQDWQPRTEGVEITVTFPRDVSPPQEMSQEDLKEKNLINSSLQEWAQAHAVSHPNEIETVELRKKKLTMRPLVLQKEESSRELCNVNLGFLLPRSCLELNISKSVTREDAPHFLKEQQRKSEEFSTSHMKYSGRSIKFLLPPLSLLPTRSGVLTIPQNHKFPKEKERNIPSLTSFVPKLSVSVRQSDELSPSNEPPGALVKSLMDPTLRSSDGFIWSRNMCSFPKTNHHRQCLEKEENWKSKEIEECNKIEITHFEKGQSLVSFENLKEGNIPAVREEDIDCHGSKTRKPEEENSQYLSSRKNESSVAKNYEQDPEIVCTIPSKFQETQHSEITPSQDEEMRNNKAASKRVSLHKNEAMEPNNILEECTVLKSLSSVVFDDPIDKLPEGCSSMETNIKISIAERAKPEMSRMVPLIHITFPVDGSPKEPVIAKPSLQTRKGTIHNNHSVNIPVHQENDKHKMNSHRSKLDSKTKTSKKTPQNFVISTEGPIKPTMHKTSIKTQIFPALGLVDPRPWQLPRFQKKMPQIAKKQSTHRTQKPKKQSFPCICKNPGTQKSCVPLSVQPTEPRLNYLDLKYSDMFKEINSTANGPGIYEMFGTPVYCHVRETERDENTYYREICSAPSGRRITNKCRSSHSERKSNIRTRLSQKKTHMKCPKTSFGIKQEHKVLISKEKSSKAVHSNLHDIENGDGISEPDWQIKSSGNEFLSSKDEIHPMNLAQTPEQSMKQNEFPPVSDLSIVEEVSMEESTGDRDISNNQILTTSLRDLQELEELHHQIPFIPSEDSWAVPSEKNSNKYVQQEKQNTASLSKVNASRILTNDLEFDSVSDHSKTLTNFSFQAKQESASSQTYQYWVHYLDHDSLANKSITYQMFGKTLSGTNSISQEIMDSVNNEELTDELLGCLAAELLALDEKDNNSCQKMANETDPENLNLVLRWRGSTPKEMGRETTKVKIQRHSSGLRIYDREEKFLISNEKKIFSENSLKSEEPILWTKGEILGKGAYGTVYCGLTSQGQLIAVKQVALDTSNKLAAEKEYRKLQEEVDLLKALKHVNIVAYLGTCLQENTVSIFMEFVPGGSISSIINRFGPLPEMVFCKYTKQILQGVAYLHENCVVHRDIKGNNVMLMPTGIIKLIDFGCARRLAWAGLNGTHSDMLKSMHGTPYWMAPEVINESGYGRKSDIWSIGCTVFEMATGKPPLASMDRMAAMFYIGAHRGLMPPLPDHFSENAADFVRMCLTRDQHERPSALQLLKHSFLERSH
Chain of Mitogen-activated protein kinase kinase kinase kinase 3 (Homo sapiens) (Q8IVH8 whole entry, canonical isoform): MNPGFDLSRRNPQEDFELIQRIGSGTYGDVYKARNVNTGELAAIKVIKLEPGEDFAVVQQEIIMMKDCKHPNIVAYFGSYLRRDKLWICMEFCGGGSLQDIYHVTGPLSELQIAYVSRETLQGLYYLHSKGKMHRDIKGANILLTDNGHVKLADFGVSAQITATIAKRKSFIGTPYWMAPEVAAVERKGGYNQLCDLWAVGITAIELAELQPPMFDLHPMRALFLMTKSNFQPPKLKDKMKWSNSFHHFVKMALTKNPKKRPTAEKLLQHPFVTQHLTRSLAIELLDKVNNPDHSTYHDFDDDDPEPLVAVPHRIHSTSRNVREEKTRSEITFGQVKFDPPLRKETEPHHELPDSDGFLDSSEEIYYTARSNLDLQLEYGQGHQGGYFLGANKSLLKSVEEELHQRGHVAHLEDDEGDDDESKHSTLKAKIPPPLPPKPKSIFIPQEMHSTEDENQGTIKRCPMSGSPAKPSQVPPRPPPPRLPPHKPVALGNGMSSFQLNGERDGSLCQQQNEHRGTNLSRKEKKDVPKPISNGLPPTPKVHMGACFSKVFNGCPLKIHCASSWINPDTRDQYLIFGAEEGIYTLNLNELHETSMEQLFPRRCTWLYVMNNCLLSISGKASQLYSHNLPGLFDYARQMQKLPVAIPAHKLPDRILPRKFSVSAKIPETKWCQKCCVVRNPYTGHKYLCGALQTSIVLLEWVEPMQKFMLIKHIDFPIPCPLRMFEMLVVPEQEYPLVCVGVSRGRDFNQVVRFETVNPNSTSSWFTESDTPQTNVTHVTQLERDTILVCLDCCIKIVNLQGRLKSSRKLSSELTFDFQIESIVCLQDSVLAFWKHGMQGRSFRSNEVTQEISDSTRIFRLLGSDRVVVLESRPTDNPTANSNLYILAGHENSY
Chain of Mitogen-activated protein kinase 11 (Homo sapiens) (Q15759 whole entry): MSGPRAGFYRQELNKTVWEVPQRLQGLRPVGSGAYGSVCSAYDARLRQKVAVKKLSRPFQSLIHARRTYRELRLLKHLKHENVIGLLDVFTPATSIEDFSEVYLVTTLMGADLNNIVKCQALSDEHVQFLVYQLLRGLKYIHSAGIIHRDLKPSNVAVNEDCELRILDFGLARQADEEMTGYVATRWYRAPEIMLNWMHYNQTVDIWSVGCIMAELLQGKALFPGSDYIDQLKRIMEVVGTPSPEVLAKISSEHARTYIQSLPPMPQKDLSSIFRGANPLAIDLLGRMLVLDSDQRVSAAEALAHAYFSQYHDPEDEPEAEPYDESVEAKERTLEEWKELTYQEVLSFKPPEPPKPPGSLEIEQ
Chain of Kappa-type opioid receptor (Homo sapiens) (P41145 whole entry): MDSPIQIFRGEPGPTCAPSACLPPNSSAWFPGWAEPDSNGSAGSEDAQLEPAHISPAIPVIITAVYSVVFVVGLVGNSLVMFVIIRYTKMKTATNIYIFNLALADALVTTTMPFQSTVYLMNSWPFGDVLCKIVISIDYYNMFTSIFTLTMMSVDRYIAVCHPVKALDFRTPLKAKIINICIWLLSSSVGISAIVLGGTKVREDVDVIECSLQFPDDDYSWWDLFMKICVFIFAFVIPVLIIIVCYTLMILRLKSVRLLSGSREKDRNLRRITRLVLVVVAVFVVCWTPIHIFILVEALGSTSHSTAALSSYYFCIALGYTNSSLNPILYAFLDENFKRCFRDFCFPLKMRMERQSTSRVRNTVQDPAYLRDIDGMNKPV

SMILES: C[C@@H]1CN(c2cc(-c3nn(C)c4ccc(OC5(C)CC5)cc34)ncn2)C[C@H](C)O1 [MLi-2-NC]
- residual activity [1, 22]: 100%
- residual activity [2, 22]: 78%
- residual activity [3, 22]: 99%
- residual activity [4, 22]: 100%
- residual activity [5, 22]: 100%
- residual activity [6, 22]: 68%
- residual activity [7, 22]: 71%
- residual activity [8, 22]: 69%
- residual activity [9, 22]: 88%
- residual activity [10, 22]: 93%
- residual activity [11, 22]: 100%
- inhibition [12]: 13.1%
- residual activity [13, 22]: 73%
- residual activity [14, 22]: 100%
- residual activity [15, 22]: 32%
- residual activity [16, 22]: 100%
- inhibition [17]: 2.92%
- residual activity [18, 22]: 100%
- residual activity [19, 22]: 55%
- residual activity [20, 22]: 100%
- residual activity [21, 22]: 91%

SMILES: C[C@@H]1CN(c2cc(-c3n[nH]c4ccc(OC5(C)CC5)cc34)ncn2)C[C@H](C)O1 [MLi-2]
- residual activity [1, 23]: 51%
- residual activity [2, 23]: 62%
- residual activity [3, 23]: 84%
- residual activity [4, 23]: 94%
- residual activity [5, 23]: 79%
- residual activity [6, 23]: 84%
- residual activity [7, 23]: 97%
- residual activity [8, 23]: 79%
- residual activity [9, 23]: 89%
- residual activity [10, 23]: 72%
- residual activity [11, 23]: 91%
- inhibition [12]: -0.6%
- residual activity [13, 23]: 65%
- residual activity [14, 23]: 88%
- residual activity [15, 23]: 81%
- residual activity [16, 23]: 97%
- inhibition [17]: 7.14%
- residual activity [18, 23]: 87%
- residual activity [19, 23]: 88%
- residual activity [20, 23]: 100%
- residual activity [21, 23]: 85%
